Source: ChEMBL document CHEMBL1201862, “PubChem BioAssay data set” (2004)
Active and inactive are the calls of the source.

What was measured:
[1] = molecular target: Lysosomal acid glucosylceramidase (Homo sapiens, UniProt P04062); assay: Dose response cell-based high throughput screening assay to identify enhancers of beta-glucosidase activity. [Related pubchem assays: 784 ]; assay type: functional
[2] = molecular target: G2/mitotic-specific cyclin-B1 (Homo sapiens, UniProt P14635); assay: Counterscreen assay for inhibitors of Wee1 degradation: dose response cell-based assay to identify inhibitors of cyclin B degradation. [Related pubchem assays: 1410, 1321 ]; assay type: functional
Chain of G2/mitotic-specific cyclin-B1 (P14635 whole entry): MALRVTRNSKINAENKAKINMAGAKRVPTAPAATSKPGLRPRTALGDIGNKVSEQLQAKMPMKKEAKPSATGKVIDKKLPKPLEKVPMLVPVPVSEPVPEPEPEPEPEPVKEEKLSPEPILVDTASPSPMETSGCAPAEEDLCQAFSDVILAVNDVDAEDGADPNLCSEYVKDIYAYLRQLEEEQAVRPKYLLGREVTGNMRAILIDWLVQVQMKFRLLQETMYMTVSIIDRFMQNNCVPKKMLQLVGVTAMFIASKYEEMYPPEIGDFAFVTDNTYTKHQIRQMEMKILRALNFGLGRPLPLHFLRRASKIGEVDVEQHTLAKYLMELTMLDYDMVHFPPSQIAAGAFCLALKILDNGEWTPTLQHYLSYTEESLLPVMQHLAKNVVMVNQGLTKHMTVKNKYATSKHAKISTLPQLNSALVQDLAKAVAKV

Wee1-like protein kinase = Wee1-like protein kinase (Homo sapiens, UniProt P30291); assay: Dose Response Cell-based Assay for Inhibitors of Wee1 Degradation. [Related pubchem assays: 1410, 1321 ]; assay type: functional
Chain of Wee1-like protein kinase (P30291 whole entry): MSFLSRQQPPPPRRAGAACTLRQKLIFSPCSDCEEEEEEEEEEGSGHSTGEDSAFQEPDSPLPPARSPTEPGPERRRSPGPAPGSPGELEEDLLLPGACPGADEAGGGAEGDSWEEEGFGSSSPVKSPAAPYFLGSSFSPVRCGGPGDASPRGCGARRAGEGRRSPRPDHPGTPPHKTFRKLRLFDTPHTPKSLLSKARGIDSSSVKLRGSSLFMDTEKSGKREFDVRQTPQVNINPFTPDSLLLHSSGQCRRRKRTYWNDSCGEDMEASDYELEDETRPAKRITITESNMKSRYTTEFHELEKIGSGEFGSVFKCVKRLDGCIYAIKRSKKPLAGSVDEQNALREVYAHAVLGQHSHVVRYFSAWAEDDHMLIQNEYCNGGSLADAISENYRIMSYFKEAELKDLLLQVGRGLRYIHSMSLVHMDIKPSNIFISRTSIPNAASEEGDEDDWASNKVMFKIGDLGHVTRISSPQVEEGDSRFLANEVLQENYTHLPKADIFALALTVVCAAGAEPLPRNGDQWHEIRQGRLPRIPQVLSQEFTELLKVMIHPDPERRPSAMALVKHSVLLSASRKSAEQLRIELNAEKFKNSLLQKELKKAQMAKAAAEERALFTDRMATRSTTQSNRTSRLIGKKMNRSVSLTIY

[3] = viability loss in Vero cells – cytotoxicity control for Vif-APOBEC3G degradation inhibitor project, dose response (AID 1117358); assay type: functional; conditions: Vero
[4] = molecular target: Potassium voltage-gated channel subfamily KQT member 2 (Rattus norvegicus, UniProt O88943); assay: Mode of action assay - current amplitude concentration response for derivatives of ZTZ240, a potentiator of KCNQ2 potassium channels. [Related pubchem assays: 2258 (Summary assay for the KCNQ2 potentiators.), 2239 (Primary HTS assay for KCNQ2 potentiators with 305606 compounds tested, and 1644 are found to be active.)]; assay type: functional
Chain of Potassium voltage-gated channel subfamily KQT member 2 (O88943 whole entry): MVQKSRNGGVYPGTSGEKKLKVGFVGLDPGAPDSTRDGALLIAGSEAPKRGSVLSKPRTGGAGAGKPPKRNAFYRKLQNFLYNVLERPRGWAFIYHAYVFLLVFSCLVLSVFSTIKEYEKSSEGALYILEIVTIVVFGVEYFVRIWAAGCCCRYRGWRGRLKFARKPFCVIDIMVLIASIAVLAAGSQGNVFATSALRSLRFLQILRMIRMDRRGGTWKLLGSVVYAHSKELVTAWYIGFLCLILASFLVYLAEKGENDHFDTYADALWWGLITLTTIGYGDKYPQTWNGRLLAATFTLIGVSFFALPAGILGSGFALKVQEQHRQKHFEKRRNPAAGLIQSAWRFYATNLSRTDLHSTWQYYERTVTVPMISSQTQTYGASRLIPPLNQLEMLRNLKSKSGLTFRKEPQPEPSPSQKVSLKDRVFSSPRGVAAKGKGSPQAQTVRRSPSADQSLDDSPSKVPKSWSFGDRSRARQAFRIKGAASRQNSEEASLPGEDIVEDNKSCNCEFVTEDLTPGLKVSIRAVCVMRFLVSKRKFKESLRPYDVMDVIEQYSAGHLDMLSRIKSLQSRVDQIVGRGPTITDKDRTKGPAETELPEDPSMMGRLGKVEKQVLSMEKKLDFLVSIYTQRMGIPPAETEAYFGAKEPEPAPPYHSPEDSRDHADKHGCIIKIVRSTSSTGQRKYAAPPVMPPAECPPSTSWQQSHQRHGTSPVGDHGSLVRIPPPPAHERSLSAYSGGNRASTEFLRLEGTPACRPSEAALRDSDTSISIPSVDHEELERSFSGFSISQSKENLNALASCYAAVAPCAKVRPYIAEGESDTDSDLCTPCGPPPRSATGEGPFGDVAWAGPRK

[5] = molecular target: Acyl-homoserine lactone acylase PvdQ (Pseudomonas aeruginosa (strain LESB58), UniProt Q9I194); assay: PvdQ acylase enzyme activity blockers – biochemical, fluorescence, plate reader and imaging, cherry-picks, dose response (AID 493231)
Chain of Acyl-homoserine lactone acylase PvdQ (Q9I194 24-193 limits assumed): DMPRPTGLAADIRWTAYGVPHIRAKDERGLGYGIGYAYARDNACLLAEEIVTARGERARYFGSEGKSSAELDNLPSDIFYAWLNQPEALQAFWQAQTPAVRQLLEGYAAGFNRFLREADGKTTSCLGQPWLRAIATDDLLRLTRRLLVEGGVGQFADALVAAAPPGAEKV
Chain of Acyl-homoserine lactone acylase PvdQ (Q9I194 217-762 limits assumed): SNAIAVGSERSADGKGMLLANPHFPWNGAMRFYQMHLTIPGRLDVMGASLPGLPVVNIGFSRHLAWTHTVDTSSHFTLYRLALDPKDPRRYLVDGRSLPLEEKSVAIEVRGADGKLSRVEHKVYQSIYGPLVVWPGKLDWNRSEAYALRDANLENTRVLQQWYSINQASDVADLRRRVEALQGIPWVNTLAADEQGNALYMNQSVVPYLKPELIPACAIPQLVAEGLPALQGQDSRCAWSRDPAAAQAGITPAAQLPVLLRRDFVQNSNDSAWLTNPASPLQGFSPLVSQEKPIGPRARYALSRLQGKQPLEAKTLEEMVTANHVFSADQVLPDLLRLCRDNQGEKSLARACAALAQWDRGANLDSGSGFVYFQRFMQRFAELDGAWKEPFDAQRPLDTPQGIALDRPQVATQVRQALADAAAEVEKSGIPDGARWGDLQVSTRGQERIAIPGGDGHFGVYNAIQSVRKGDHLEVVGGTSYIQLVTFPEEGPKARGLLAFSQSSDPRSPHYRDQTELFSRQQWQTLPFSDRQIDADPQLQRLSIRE

[6] = molecular target: T1, Eukaryotic translation initiation factor 2-alpha kinase 3 (Homo sapiens, UniProt Q9NZJ5); assay: Dose response cell-based high-throughput screening assay to measure PERK inhibition. [Related pubchem assays: 1416 ]; assay type: functional
T1 sequence (Q9NZJ5 whole entry): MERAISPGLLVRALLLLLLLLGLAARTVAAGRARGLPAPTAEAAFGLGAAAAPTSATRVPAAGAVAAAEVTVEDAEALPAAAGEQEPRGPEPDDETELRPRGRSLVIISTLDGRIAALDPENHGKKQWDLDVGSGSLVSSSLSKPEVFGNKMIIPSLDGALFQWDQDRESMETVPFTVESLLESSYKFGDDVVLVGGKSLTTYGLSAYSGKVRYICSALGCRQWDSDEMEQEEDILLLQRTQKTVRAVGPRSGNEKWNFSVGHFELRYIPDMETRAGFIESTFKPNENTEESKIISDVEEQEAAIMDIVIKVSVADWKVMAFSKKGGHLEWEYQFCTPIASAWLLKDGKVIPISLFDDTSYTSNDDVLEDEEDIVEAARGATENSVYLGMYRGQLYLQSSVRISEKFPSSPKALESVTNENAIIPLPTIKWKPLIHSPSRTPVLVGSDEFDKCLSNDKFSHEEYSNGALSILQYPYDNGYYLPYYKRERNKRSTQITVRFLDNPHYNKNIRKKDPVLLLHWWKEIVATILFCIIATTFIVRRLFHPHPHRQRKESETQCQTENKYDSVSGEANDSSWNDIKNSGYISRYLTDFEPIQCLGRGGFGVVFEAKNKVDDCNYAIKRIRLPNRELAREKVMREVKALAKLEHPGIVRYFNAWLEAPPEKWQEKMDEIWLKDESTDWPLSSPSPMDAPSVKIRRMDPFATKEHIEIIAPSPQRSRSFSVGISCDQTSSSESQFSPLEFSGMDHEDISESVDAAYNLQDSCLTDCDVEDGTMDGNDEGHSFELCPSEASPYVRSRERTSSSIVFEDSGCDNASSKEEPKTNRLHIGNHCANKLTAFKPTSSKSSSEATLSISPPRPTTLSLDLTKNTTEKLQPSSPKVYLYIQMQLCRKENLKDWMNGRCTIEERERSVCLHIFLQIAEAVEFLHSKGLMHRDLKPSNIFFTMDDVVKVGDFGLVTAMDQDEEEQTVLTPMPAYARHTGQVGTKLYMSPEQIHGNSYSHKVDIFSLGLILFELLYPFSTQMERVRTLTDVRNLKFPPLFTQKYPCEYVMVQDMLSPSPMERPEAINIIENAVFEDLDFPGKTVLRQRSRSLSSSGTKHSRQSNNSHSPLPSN

[7] = molecular target: T1, Eukaryotic translation initiation factor 2-alpha kinase 3; assay: Counterscreen assay for PERK inhibitors: Dose response cell-based high throughput screening assay to measure inhibition of PERK at 6 hours. [Related pubchem assays: 1522, 1416 ]; assay type: functional
[8] = molecular target: T2, Corticotropin-releasing factor receptor 2/Corticotropin-releasing factor-binding protein (Homo sapiens, UniProt P24387+Q13324); assay: Dose Response confirmation of uHTS hits for small molecule antagonists of the CRF-binding protein and CRF-R2 receptor complex.; assay type: functional; conditions: read-out: IC50_Mean
T2 sequence (Q13324 whole entry): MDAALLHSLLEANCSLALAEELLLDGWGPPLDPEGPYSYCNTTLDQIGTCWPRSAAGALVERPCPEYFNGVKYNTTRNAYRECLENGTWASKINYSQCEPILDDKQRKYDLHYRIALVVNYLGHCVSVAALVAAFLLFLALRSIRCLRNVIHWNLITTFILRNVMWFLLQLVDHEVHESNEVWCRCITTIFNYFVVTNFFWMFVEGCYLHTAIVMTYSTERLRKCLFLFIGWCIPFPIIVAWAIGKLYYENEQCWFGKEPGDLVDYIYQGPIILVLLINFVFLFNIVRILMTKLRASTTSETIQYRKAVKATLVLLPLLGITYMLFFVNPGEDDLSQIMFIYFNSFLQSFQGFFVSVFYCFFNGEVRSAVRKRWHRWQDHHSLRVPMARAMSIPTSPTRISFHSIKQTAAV
T2 sequence (P24387 whole entry): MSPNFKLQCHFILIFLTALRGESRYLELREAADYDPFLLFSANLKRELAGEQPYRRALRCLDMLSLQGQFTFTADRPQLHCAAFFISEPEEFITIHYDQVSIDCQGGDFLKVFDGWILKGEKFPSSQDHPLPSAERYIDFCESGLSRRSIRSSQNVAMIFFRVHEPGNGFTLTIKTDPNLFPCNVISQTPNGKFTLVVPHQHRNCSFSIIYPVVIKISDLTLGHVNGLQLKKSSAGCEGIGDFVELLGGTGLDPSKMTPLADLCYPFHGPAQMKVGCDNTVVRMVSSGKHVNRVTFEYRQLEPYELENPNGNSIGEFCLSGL

[9] = molecular target: T2, Corticotropin-releasing factor receptor 2/Corticotropin-releasing factor-binding protein; assay: activators of CRF receptor 2 with binding protein – uHTS hits, confirmation (AID 602473); assay type: functional; conditions: read-out: EC50_Mean

Chain of Lysosomal acid glucosylceramidase (P04062 whole entry): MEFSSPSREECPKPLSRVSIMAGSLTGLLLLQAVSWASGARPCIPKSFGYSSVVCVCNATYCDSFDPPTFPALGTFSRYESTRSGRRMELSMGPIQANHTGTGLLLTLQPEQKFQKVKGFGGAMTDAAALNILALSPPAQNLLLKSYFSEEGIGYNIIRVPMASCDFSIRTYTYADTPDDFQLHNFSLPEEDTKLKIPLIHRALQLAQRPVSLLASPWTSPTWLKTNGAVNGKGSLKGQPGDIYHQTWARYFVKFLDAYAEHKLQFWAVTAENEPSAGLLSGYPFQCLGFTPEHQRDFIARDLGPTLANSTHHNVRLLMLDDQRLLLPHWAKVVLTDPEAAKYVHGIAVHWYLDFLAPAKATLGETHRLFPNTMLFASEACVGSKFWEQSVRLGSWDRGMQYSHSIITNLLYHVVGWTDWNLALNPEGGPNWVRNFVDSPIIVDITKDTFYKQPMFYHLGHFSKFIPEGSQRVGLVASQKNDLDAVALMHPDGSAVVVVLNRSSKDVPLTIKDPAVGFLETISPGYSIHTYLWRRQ

C=CCSC1=N/C(=C\c2ccsc2)C(=O)S1
EC50 [1]: > 50 µM (not active)

COc1ccc(/C=N/NC(=O)c2ccc3ccccc3c2)cc1OS(=O)(=O)c1ccc(NC(C)=O)cc1
EC50 [2]: > 49.7 µM (not active) | EC50 (Wee1-like protein kinase): > 49.7 µM (not active) | CC50 [3]: > 40 µM (active)

O=C(Nc1ccc(Cl)nc1)c1ccc(F)c(F)c1
EC50 [4]: 14.4 µM (active)

N#CC(c1ccc(Cl)cc1)c1ccc(Cl)nn1 (stereo not given)
AC50 [5]: 0.991 µM (active)

C=CCN(c1ccccc1)S(=O)(=O)c1cccc(C(=O)O)c1
EC50 [6]: > 55.7 µM (not active) | EC50 [7]: > 55.7 µM (not active) | IC50 [8]: > 47.1 µM (inactive) | EC50 [9]: > 53 µM (inactive)
